Data from patent EP3046573B1, “AMYLIN ANALOGUES” (Zealand Pharma A/S, priority 2013, dated 2015).
pEC50: −log10 of the molar value. Numbered stars: 1 amine (or outer) side, 2 acyl side, 3 side chain; on linkers, the order of the positions; unused ones are H or OH. Bridge positions count the residues as written; N and C are the ends. Square brackets hold non-standard residues; d marks the D form. Peptide text beside a SMILES is read from it. * marks the point of attachment. C20 diacid = O=C(O)CCCCCCCCCCCCCCCCCCC(=O)*; γGlu = O=C(O)[C@H](CCC(=O)[*:2])N[*:1]; NMeI = CC[C@H](C)[C@H](NC)C(=O)O; Sar = CNCC(=O)O

Columns and labels:
[1] = biological target: T1, human calcitonin receptor (hCTR2) (Homo sapiens, UniProt P30988); test: hCTR2 assay: induction of cAMP (AlphaScreen cAMP Assay kit) in COS7 cells expressing hCTR2; type: cell-based; details: cAMP induction in COS7 cells expressing hCTR2; average of a minimum of 3 determinations; read-out: hCTR2 EC50
T1 construct: expressed in transfected cells
T1 sequence (P30988 25-474): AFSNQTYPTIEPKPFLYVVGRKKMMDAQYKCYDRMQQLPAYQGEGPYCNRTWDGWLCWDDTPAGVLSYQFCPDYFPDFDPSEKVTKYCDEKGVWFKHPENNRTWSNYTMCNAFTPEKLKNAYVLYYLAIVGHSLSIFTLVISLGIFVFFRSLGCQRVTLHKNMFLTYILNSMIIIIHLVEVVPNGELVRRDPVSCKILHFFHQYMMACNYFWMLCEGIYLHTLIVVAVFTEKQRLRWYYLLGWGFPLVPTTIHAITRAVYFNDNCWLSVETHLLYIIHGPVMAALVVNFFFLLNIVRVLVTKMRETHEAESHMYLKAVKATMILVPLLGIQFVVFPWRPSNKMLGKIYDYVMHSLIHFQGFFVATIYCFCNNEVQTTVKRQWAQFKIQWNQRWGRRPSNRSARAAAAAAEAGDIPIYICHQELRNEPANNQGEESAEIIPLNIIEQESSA
Procedure, shortened: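 cAMP read-out by AlphaScreen after cell lysis; EC50 and % efficacy vs pramlintide from 4-parameter logistic fitting. Agonist stimulation: hCTR2-COS7 stable cells, 15 min, 37° C, 100 µM IBMX, 0.1% casein, Tyrode/HEPES pH 7.4.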

[2] = biological target: T2, human amylin receptor 3 (hAMYR3) consisting of hCTR2 co-expressed with human Receptor Activity Modifying Protein 3 (hRAMP3) (Homo sapiens, UniProt O60896+P30988); test: hAMYR3 assay: induction of cAMP (AlphaScreen cAMP Assay kit) in COS7 cells expressing hAMYR3; type: cell-based; details: cAMP induction in COS7 cells expressing hAMYR3; average of a minimum of 3 determinations; read-out: hAMY R3 EC50
T2 construct: expressed in transfected cells
T2 sequence (P30988 25-474): T1 sequence (P30988 25-474)
T2 sequence (O60896 24-148 partner): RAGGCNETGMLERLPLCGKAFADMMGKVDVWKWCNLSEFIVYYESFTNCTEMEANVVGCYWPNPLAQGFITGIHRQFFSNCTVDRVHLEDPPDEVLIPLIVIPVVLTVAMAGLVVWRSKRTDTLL
Procedure, shortened: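 cAMP accumulation read by AlphaScreen in lysates of RAMP-naive COS7 cells stably transfected with hCTR2 plus hRAMP3. Cells exposed to peptide dilutions for 15 min, 37° C, with 100 µM IBMX; 4PL fitting gave EC50 and efficacy relative to pramlintide.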

[3] = Solubility assessment (turbidity absorbance at 325 nm); type: physicochemical; details: stock 2 mg/ml diluted 1:1, ambient temperature (typically 25°C), n=1; for Solubility, Acetate buffer pH 4: 100 mM acetate buffer pH 4.0; for Solubility, Acetate buffer pH 5: 100 mM acetate buffer pH 5.0; for Solubility, Histidine buffer pH 6: 100 mM histidine buffer pH 6.0; for Solubility, Histidine buffer pH 7: 100 mM histidine buffer pH 7.0; for Solubility, Phosphate buffer pH 6: 100 mM phosphate buffer pH 6.0; for Solubility, Phosphate buffer pH 7: 100 mM phosphate buffer pH 7.0; for Solubility, Phosphate buffer pH 7.5: 100 mM phosphate buffer pH7.5
Procedure, shortened: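 Turbidity read as absorbance at 325 nm (also 280 nm), single samples at ambient temperature (typically 25°C); ≤ 0.02 units counts as ≥ 1 mg/ml soluble. Samples made by 1:1 dilution of a 2 mg/ml acidic stock into 100 mM acetate, histidine or phosphate buffers, pH 4.0–7.5.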

SMILES | pEC50 [1] | pEC50 [2] | Solubility, Acetate buffer pH 4 [3] | Solubility, Acetate buffer pH 5 [3] | Solubility, Histidine buffer pH 6 [3] | Solubility, Histidine buffer pH 7 [3] | Solubility, Phosphate buffer pH 6 [3] | Solubility, Phosphate buffer pH 7 [3] | Solubility, Phosphate buffer pH 7.5 [3]
CC[C@H](C)[C@@H](C(=O)N[C@@H](CC(C)C)C(=O)N[C@@H](CO)C(=O)N[C@@H](CO)C(=O)N[C@H](C(=O)N[C@@H](CC(N)=O)C(=O)N[C@H](C(=O)NCC(=O)N[C@@H](CO)C(=O)N[C@@H](CC(N)=O)C(=O)N[C@H](C(=O)N[C@@H](Cc1ccc(O)cc1)C(=O)NC)[C@@H](C)O)C(C)C)[C@@H](C)O)N(C)C(=O)CN(C)C(=O)[C@H](Cc1ccccc1)NC(=O)[C@H](CC(N)=O)NC(=O)[C@H](CC(N)=O)NC(=O)[C@H](CO)NC(=O)[C@H](CO)NC(=O)[C@H](CCCNC(=N)N)NC(=O)[C@H](Cc1c[nH]cn1)NC(=O)[C@H](CC(C)C)NC(=O)[C@H](Cc1ccccc1)NC(=O)[C@H](CCC(=O)O)NC(=O)[C@H](C)NC(=O)[C@H](CC(C)C)NC(=O)[C@H](CCCNC(=N)N)NC(=O)[C@H](CCC(N)=O)NC(=O)[C@@H](NC(=O)[C@H](C)NC(=O)[C@@H]1CSSC[C@H](NC(=O)[C@H](CCCNC(=N)N)NC(=O)CC[C@H](NC(=O)CCCCCCCCCCCCCCCCCCC(=O)O)C(=O)O)C(=O)N[C@@H](CC(N)=O)C(=O)N[C@@H]([C@@H](C)O)C(=O)N[C@@H](C)C(=O)N[C@@H]([C@@H](C)O)C(=O)N1)[C@@H](C)O [Compound 155, [19CD]-isoGlu-RC()NTATC()ATQRLAEFLHRSSNNF-Gly(Me)-Ile(Me)-LSSTNVGSNTY-NHMe] ({C20 diacid-γGlu}-RCNTATCATQRLAEFLHRSSNNF[Sar][NMeI]LSSTNVGSNTY-NHMe; disulfide 2-7) | 9.17 | 8.28 | SS (SS indicates solubility ≥ 1mg/ml) | SS (SS indicates solubility ≥ 1mg/ml) | II (II indicates solubility ≤ 1 mg/ml) | II (II indicates solubility ≤ 1 mg/ml) | II (II indicates solubility ≤ 1 mg/ml) | II (II indicates solubility ≤ 1 mg/ml) | II (II indicates solubility ≤ 1 mg/ml)
CC[C@H](C)[C@@H](C(=O)N[C@@H](CC(C)C)C(=O)N[C@@H](CO)C(=O)N[C@@H](CO)C(=O)N[C@H](C(=O)N[C@@H](CC(=O)O)C(=O)N[C@H](C(=O)NCC(=O)N[C@@H](CO)C(=O)N[C@@H](CC(=O)O)C(=O)N[C@H](C(=O)N1CCC[C@H]1C(N)=O)[C@@H](C)O)C(C)C)[C@@H](C)O)N(C)C(=O)[C@H](C)NC(=O)CN(C)C(=O)[C@H](Cc1ccccc1)NC(=O)[C@H](CO)NC(=O)[C@H](CO)NC(=O)[C@H](CCCNC(=N)N)NC(=O)[C@H](Cc1c[nH]cn1)NC(=O)[C@H](CC(C)C)NC(=O)[C@H](Cc1ccccc1)NC(=O)[C@H](CCC(=O)O)NC(=O)[C@H](C)NC(=O)[C@H](CC(C)C)NC(=O)[C@H](CCCNC(=N)N)NC(=O)[C@H](CC(=O)O)NC(=O)[C@@H](NC(=O)[C@H](C)NC(=O)[C@@H]1CSSC[C@H](NC(=O)[C@H](Cc2c[nH]c3ccccc23)NC(=O)CC[C@H](NC(=O)CCCCCCCCCCCCCCCCCCC(=O)O)C(=O)O)C(=O)NCC(=O)N[C@@H]([C@@H](C)O)C(=O)N[C@@H](C)C(=O)N[C@@H]([C@@H](C)O)C(=O)N1)[C@@H](C)O [Compound 157, [19CD]-isoGlu-WC()GTATC()ATDRLAEFLHRSSF-Gly(Me)-A-Ile(Me)-LSSTDVGSDTP-NH2] ({C20 diacid-γGlu}-WCGTATCATDRLAEFLHRSSF[Sar]A[NMeI]LSSTDVGSDTP-NH2; disulfide 2-7) | 10.14 | 9.80 | II (II indicates solubility ≤ 1 mg/ml) | SS (SS indicates solubility ≥ 1mg/ml) | SS (SS indicates solubility ≥ 1mg/ml) | SS (SS indicates solubility ≥ 1mg/ml) | SS (SS indicates solubility ≥ 1mg/ml) | SS (SS indicates solubility ≥ 1mg/ml) | SS (SS indicates solubility ≥ 1mg/ml)
CC[C@H](C)[C@@H](C(=O)N[C@@H](CC(C)C)C(=O)N[C@@H](CO)C(=O)N[C@@H](CO)C(=O)N[C@H](C(=O)N[C@@H](CC(=O)O)C(=O)N[C@H](C(=O)NCC(=O)N[C@@H](CO)C(=O)N[C@@H](CC(=O)O)C(=O)N[C@H](C(=O)N1CCC[C@H]1C(N)=O)[C@@H](C)O)C(C)C)[C@@H](C)O)N(C)C(=O)[C@H](C)NC(=O)CN(C)C(=O)[C@H](Cc1ccccc1)NC(=O)[C@H](CO)NC(=O)[C@H](CO)NC(=O)[C@H](CCCNC(=N)N)NC(=O)[C@H](Cc1c[nH]cn1)NC(=O)[C@H](CC(C)C)NC(=O)[C@H](Cc1ccccc1)NC(=O)[C@H](CCC(=O)O)NC(=O)[C@H](C)NC(=O)[C@H](CC(C)C)NC(=O)[C@H](CCCNC(=N)N)NC(=O)[C@H](CC(=O)O)NC(=O)[C@@H](NC(=O)[C@H](C)NC(=O)[C@@H]1CSSC[C@H](NC(=O)[C@H](CCCNC(=N)N)NC(=O)CC[C@H](NC(=O)CCCCCCCCCCCCCCCCCCC(=O)O)C(=O)O)C(=O)NCC(=O)N[C@@H]([C@@H](C)O)C(=O)N[C@@H](C)C(=O)N[C@@H]([C@@H](C)O)C(=O)N1)[C@@H](C)O [Compound 158, [19CD]-isoGlu-RC()GTATC()ATDRLAEFLHRSSF-Gly(Me)-A-Ile(Me)-LSSTDVGSDTP-NH2] ({C20 diacid-γGlu}-RCGTATCATDRLAEFLHRSSF[Sar]A[NMeI]LSSTDVGSDTP-NH2; disulfide 2-7) | 10.32 | 9.96 | SS (SS indicates solubility ≥ 1mg/ml) | SS (SS indicates solubility ≥ 1mg/ml) | SS (SS indicates solubility ≥ 1mg/ml) | SS (SS indicates solubility ≥ 1mg/ml) | SS (SS indicates solubility ≥ 1mg/ml) | SS (SS indicates solubility ≥ 1mg/ml) | SS (SS indicates solubility ≥ 1mg/ml)
CC[C@H](C)[C@@H](C(=O)N[C@@H](CC(C)C)C(=O)N[C@@H](CO)C(=O)N[C@@H](CO)C(=O)N[C@H](C(=O)N[C@@H](CC(=O)O)C(=O)N[C@H](C(=O)NCC(=O)N[C@@H](CO)C(=O)N[C@@H](CC(=O)O)C(=O)N[C@H](C(=O)N1CCC[C@H]1C(N)=O)[C@@H](C)O)C(C)C)[C@@H](C)O)N(C)C(=O)[C@H](C)NC(=O)CN(C)C(=O)[C@H](Cc1ccccc1)NC(=O)[C@H](CO)NC(=O)[C@H](CO)NC(=O)[C@H](CO)NC(=O)[C@H](CO)NC(=O)[C@H](CCCNC(=N)N)NC(=O)[C@H](Cc1c[nH]cn1)NC(=O)[C@H](CC(C)C)NC(=O)[C@H](Cc1ccccc1)NC(=O)[C@H](CCC(=O)O)NC(=O)[C@H](C)NC(=O)[C@H](CC(C)C)NC(=O)[C@H](CCCNC(=N)N)NC(=O)[C@H](CCC(=O)O)NC(=O)[C@@H](NC(=O)[C@H](C)NC(=O)[C@@H]1CSSC[C@H](NC(=O)[C@H](CCCCN)NC(=O)[C@H](CCCCN)NC(=O)CC[C@H](NC(=O)CCCCCCCCCCCCCCCCCCC(=O)O)C(=O)O)C(=O)N[C@@H](CC(N)=O)C(=O)N[C@@H]([C@@H](C)O)C(=O)N[C@@H](C)C(=O)N[C@@H]([C@@H](C)O)C(=O)N1)[C@@H](C)O [Compound 159, [19CD]-isoGlu-KKC()NTATC()ATERLAEFLHRSSSSF-Gly(Me)-A-Ile(Me)-LSSTDVGSDTP-NH2] ({C20 diacid-γGlu}-KKCNTATCATERLAEFLHRSSSSF[Sar]A[NMeI]LSSTDVGSDTP-NH2; disulfide 3-8) | 10.00 | 9.85 | SS (SS indicates solubility ≥ 1mg/ml) | SS (SS indicates solubility ≥ 1mg/ml) | SS (SS indicates solubility ≥ 1mg/ml) | SS (SS indicates solubility ≥ 1mg/ml) | SS (SS indicates solubility ≥ 1mg/ml) | SS (SS indicates solubility ≥ 1mg/ml) | SS (SS indicates solubility ≥ 1mg/ml)
